Assay results published in the NIST ThermoML archive (doi:10.1021/acs.jced.9b00419).
Several values for one entry are separate records, joined by “and”; a condition that tells them apart may be missing. Identical values can stand only once.

Details: Liquid, Transpiration method

CCCCCCC(CO)CCCC (stereo unspecified) [2-butyl-1-octanol]
Details | vapor or sublimation pressure [kPa]
308.1 K | 0.00112
312.9 K | 0.00195
317.8 K | 0.00325
322.7 K | 0.00526
327.6 K | 0.00824
332.5 K | 0.01315
337.5 K | 0.02027
342.6 K | 0.03024
347.6 K | 0.0452
352.6 K | 0.06767

CCCCCCOC(=O)CCCCC [hexanoic acid, hexyl ester]
Details | vapor or sublimation pressure
298.4 K | 0.00313 kPa
303.2 K | 0.0049 kPa
308 K | 0.00732 kPa
312.8 K | 0.01166 kPa and 0.01116 kPa
317.7 K | 0.01667 kPa
322.6 K | 0.0257 kPa
327.5 K | 0.03605 kPa
332.4 K | 0.05276 kPa
337.3 K | 0.07541 kPa
342.3 K | 0.1055 kPa
347.3 K | 0.1426 kPa and 0.1453 kPa
